Data from PubChem BioAssay AID248 (DTP/NCI, 2004).
Where “and” joins values, the source holds several entries; their conditions need not be identical. Equal entries are not always repeated. Inconclusive results and toxic doses are left out.

System: L1210 leukemia ip in BDF1 mice, survival T/C
Test: NCI In Vivo Anticancer Drug Screen. Data for tumor model L1210 Leukemia (intraperitoneal) in B6D2F1 (BDF1) mice
Details: endpoint: mean survival time, higher = longer survival
Outline: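 Each compound was tested against a transplantable tumor grown in mice. The endpoint was survival, with treated animals benchmarked against vehicle controls as a simple ratio.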

[1] = dose: 100.0 mg/kg/injection, schedule: Q04DX002 (ip), vehicle: saline
[2] = dose: 100.0 mg/kg/injection, schedule: Q04DX003 (ip), vehicle: saline
[3] = dose: 100.0 mg/kg/injection, schedule: Q01DX009 (ip), vehicle: Klucel (hydroxypropylcellulose) (HPC)
[4] = dose: 200.0 mg/kg/injection, schedule: Q01DX009 (ip), vehicle: Klucel (hydroxypropylcellulose) (HPC)
[5] = dose: 100.0 mg/kg/injection, schedule: Q01DX009 (ip), vehicle: saline with Tween-80
[6] = dose: 200.0 mg/kg/injection, schedule: Q01DX009 (ip), vehicle: saline with Tween-80
[7] = dose: 200.0 mg/kg/injection, schedule: Q04DX003 (ip), vehicle: saline
[8] = dose: 400.0 mg/kg/injection, schedule: Q04DX003 (ip), vehicle: saline
[9] = dose: 6.25 mg/kg/injection, schedule: Q01DX009 (ip), vehicle: saline with Tween-80
[10] = dose: 12.5 mg/kg/injection, schedule: Q01DX009 (ip), vehicle: saline with Tween-80
[11] = dose: 25.0 mg/kg/injection, schedule: Q01DX009 (ip), vehicle: saline with Tween-80
[12] = dose: 100.0 mg/kg/injection, schedule: Q01DX001 (ip), vehicle: saline
[13] = dose: 200.0 mg/kg/injection, schedule: Q01DX001 (ip), vehicle: saline
[14] = dose: 100.0 mg/kg/injection, schedule: Q04DX003 (ip), vehicle: Klucel (hydroxypropylcellulose) (HPC)
[15] = dose: 200.0 mg/kg/injection, schedule: Q04DX003 (ip), vehicle: Klucel (hydroxypropylcellulose) (HPC)
[16] = dose: 400.0 mg/kg/injection, schedule: Q04DX003 (ip), vehicle: Klucel (hydroxypropylcellulose) (HPC)

## COc1ccc(CCN)cc1
dose: 25.0 mg/kg/injection, schedule: Q04DX002 (ip), vehicle: saline
  T/C: 101 % of control
dose: 50.0 mg/kg/injection, schedule: Q04DX002 (ip), vehicle: saline
  T/C: 97 % of control
[1]
  T/C: 97 % of control and 109 % of control

## c1cc(-n2nnc3cnccc32)ccn1
dose: 6.25 mg/kg/injection, schedule: Q04DX003 (ip), vehicle: saline
  T/C: 100 % of control
dose: 12.5 mg/kg/injection, schedule: Q04DX003 (ip), vehicle: saline
  T/C: 91 % of control
dose: 25.0 mg/kg/injection, schedule: Q04DX003 (ip), vehicle: saline
  T/C: 102 % of control
[2]
  T/C: 86 % of control

## OCC1C2CCC(C2)C1c1ccccc1 (stereo not drawn)
dose: 9.38 mg/kg/injection, schedule: Q01DX001 (ip), vehicle: saline
  T/C: 103 % of control

## CC(C)=CBr
dose: 50.0 mg/kg/injection, schedule: Q01DX009 (ip), vehicle: acetone
  T/C: 96 % of control
dose: 100.0 mg/kg/injection, schedule: Q01DX009 (ip), vehicle: acetone
  T/C: 89 % of control
dose: 200.0 mg/kg/injection, schedule: Q01DX009 (ip), vehicle: acetone
  T/C: 103 % of control

## CC(C)=NNC(=O)Nc1cccc(C)c1C
[3]
  T/C: 90 % of control
[4]
  T/C: 91 % of control

## O=C(O)c1cccc2[nH]c(=O)oc(=O)c12
[5]
  T/C: 103 % of control
[6]
  T/C: 106 % of control

## COc1ccc(NC(=O)c2ccc(C(=O)Nc3ccc(OC)cc3)cc2)cc1
[2]
  T/C: 92 % of control
[7]
  T/C: 97 % of control
[8]
  T/C: 92 % of control

## CCCCCC(=O)Oc1c(C(C)CC)cc([N+](=O)[O-])cc1[N+](=O)[O-] (stereo not drawn)
[9]
  T/C: 111 % of control
[10]
  T/C: 88 % of control
[11]
  T/C: 90 % of control
dose: 25.0 mg/kg/injection, schedule: Q04DX002 (ip), vehicle: saline with Tween-80
  T/C: 89 % of control

## Cc1c(O)ccc(O)c1C
[12]
  T/C: 100 % of control
[13]
  T/C: 95 % of control

## Cc1ccc2cccc3c(=O)c4cccc5cccc(sc1c23)c54
[12]
  T/C: 88 % of control
dose: 100.0 mg/kg/injection, schedule: Q01DX009 (ip), vehicle: other
  T/C: 92 % of control
[13]
  T/C: 97 % of control
dose: 200.0 mg/kg/injection, schedule: Q01DX009 (ip), vehicle: other
  T/C: 92 % of control
dose: 400.0 mg/kg/injection, schedule: Q01DX001 (ip), vehicle: saline
  T/C: 89 % of control
dose: 400.0 mg/kg/injection, schedule: Q01DX009 (ip), vehicle: other
  T/C: 92 % of control

## CCN(CC)CCCOC(=O)c1ccccc1
dose: 50.0 mg/kg/injection, schedule: Q01DX009 (ip), vehicle: saline
  T/C: 96 % of control
dose: 100.0 mg/kg/injection, schedule: Q01DX009 (ip), vehicle: saline
  T/C: 100 % of control
dose: 200.0 mg/kg/injection, schedule: Q01DX009 (ip), vehicle: saline
  T/C: 100 % of control

## COc1cc(C(=O)O)c(Br)c(OC)c1OC
dose: 100.0 mg/kg/injection, schedule: Q01DX001 (ip), vehicle: saline with Tween-80
  T/C: 103 % of control
dose: 200.0 mg/kg/injection, schedule: Q01DX001 (ip), vehicle: saline with Tween-80
  T/C: 101 % of control
dose: 400.0 mg/kg/injection, schedule: Q01DX001 (ip), vehicle: saline with Tween-80
  T/C: 114 % of control

## Cc1c(C)c(C(=O)O)c(C)c(C)c1C(=O)O
[5]
  T/C: 96 % of control
[6]
  T/C: 97 % of control
dose: 400.0 mg/kg/injection, schedule: Q01DX009 (ip), vehicle: saline with Tween-80
  T/C: 102 % of control

## Nc1ncc(C(=O)c2ccccc2)cc1Br
[14]
  T/C: 97 % of control
[15]
  T/C: 97 % of control
[16]
  T/C: 97 % of control

## CC1=CC(=O)C(C(=O)CC(O)(C(F)(F)F)C(F)(F)F)C(=O)O1 (stereo not drawn)
[10]
  T/C: 92 % of control
[11]
  T/C: 103 % of control
dose: 50.0 mg/kg/injection, schedule: Q01DX009 (ip), vehicle: saline with Tween-80
  T/C: 88 % of control

## O=C1NCC(Nc2ccc(Br)cc2)C(=O)N1 (stereo not drawn)
dose: 100.0 mg/kg/injection, schedule: Q01DX Z (ip), vehicle: methylcellulose (MC)
  T/C: 96 % of control
dose: 200.0 mg/kg/injection, schedule: Q01DX Z (ip), vehicle: methylcellulose (MC)
  T/C: 94 % of control

## Oc1ccc(CCNCc2cc3c(cc2Br)OCO3)cc1
dose: 50.0 mg/kg/injection, schedule: Q01DX009 (ip), vehicle: Klucel (hydroxypropylcellulose) (HPC)
  T/C: 101 % of control
[3]
  T/C: 96 % of control
[4]
  T/C: 108 % of control

## CCCCCCC[CH2][Sn]([CH2]CCCCCCC)([NH]S(=O)(=O)c1ccc(C)cc1)[NH]S(=O)(=O)c1ccc(C)cc1
dose: 18.75 mg/kg/injection, schedule: Q01DX009 (ip), vehicle: saline sonified
  T/C: 102 % of control
dose: 37.5 mg/kg/injection, schedule: Q01DX009 (ip), vehicle: saline sonified
  T/C: 86 % of control
dose: 75.0 mg/kg/injection, schedule: Q04DX003 (ip), vehicle: Klucel (hydroxypropylcellulose) (HPC)
  T/C: 107 % of control

## CCCCC(=O)N(c1ccc(Nc2c3ccccc3nc3cc([N+](=O)[O-])ccc23)cc1)S(C)(=O)=O
dose: 3.18 mg/kg/injection, schedule: Q01DX009 (sc), vehicle: saline
  T/C: 119 % of control
[9]
  T/C: 160 % of control
dose: 16.5 mg/kg/injection, schedule: Q04DX003 (ip), vehicle: saline with Tween-80
  T/C: 150 % of control
[11]
  T/C: 95 % of control
dose: 25.0 mg/kg/injection, schedule: Q01DX009 (sc), vehicle: saline
  T/C: 179 % of control
dose: 25.0 mg/kg/injection, schedule: Q04DX003 (ip), vehicle: saline with Tween-80
  T/C: 153 % of control
dose: 44.0 mg/kg/injection, schedule: Q04DX003 (ip), vehicle: saline
  T/C: 168 % of control
dose: 50.0 mg/kg/injection, schedule: Q04DX003 (ip), vehicle: saline with Tween-80
  T/C: 242 % of control
dose: 67.0 mg/kg/injection, schedule: Q04DX003 (ip), vehicle: saline
  T/C: 92 % of control
dose: 100.0 mg/kg/injection, schedule: Q04DX003 (ip), vehicle: saline with Tween-80
  T/C: 188 % of control
[2]
  T/C: 103 % of control
dose: 200.0 mg/kg/injection, schedule: Q04DX003 (ip), vehicle: saline with Tween-80
  T/C: 100 % of control

## Cc1ccc(S(=O)(=O)NCl)cc1
[2]
  T/C: 99 % of control

## O=C1C=CC(=O)C2=C1C1c3ccccc3C2([N+](=O)[O-])c2ccccc21
[3]
  T/C: 100 % of control
[14]
  T/C: 105 % of control
[4]
  T/C: 92 % of control
[15]
  T/C: 97 % of control
[7]
  T/C: 97 % of control
dose: 400.0 mg/kg/injection, schedule: Q01DX009 (ip), vehicle: Klucel (hydroxypropylcellulose) (HPC)
  T/C: 100 % of control
[16]
  T/C: 102 % of control
[8]
  T/C: 102 % of control

## O=C(COCC(=O)N/N=C/c1ccc(Cl)cc1Cl)N/N=C\c1cc(Cl)cc(Cl)c1
[3]
  T/C: 93 % of control
[4]
  T/C: 88 % of control

## CC(=O)O[C@@H]1[C@H]2O[C@H]2[C@H]2O[C@@]2(COC(=O)c2ccccc2)[C@H]1OC(C)=O
dose: 100.0 mg/kg/injection, schedule: Q01DX015 (ip), vehicle: carboxymethylcellulose (CMC)
  T/C: 108 % of control
dose: 200.0 mg/kg/injection, schedule: Q01DX015 (ip), vehicle: carboxymethylcellulose (CMC)
  T/C: 107 % of control
dose: 400.0 mg/kg/injection, schedule: Q01DX015 (ip), vehicle: carboxymethylcellulose (CMC)
  T/C: 90 % of control

## CCCCCCCCCCCCCCCCSCCCCCCCCCCCCCCCC
[5]
  T/C: 104 % of control
[6]
  T/C: 98 % of control

## O=P(O)(O)OCC1OC(O)(COP(=O)(O)O)C(O)C1O (stereo not drawn)
[1]
  T/C: 100 % of control
dose: 200.0 mg/kg/injection, schedule: Q04DX002 (ip), vehicle: saline
  T/C: 106 % of control
dose: 400.0 mg/kg/injection, schedule: Q04DX002 (ip), vehicle: saline
  T/C: 95 % of control

## CCOc1ccn(C2OC(COC(C)=O)C(OC3OC(COC(C)=O)C(OC(C)=O)C(OC(C)=O)C3OC(C)=O)C(OC(C)=O)C2OC(C)=O)c(=O)n1 (stereo not drawn)
dose: 22.5 mg/kg/injection, schedule: Q01DX001 (ip), vehicle: carboxymethylcellulose (CMC)
  T/C: 120 % of control
dose: 45.0 mg/kg/injection, schedule: Q01DX001 (ip), vehicle: carboxymethylcellulose (CMC)
  T/C: 103 % of control
dose: 90.0 mg/kg/injection, schedule: Q01DX001 (ip), vehicle: carboxymethylcellulose (CMC)
  T/C: 100 % of control
dose: 180.0 mg/kg/injection, schedule: Q01DX001 (ip), vehicle: carboxymethylcellulose (CMC)
  T/C: 100 % of control
